Format in all cases: physicochemical
Data set [1] is described as follows: Solubility assessment in solvents. Conditions: 1,4-dioxane, water, tert-butyl alcohol, THF, ethyl acetate, acetone, methanol, DCM; even at 20 mg/mL with gentle heating. The procedure: 0.5-1 mL of solvent was added to each vial and the samples were manually shaken at ambient temperature. […] The solvents assessed in this solubility study were 1,4-dioxane, water, tert-butyl alcohol, THF, ethyl acetate, acetone, methanol, and DCM.

Data set [2] in a line: Salt disproportionation study in unbuffered water. To be noted: ambient temperature, 24 hours.
Data set [3] is described as follows: Dissolution rate assessment in pH 1.2, 0.2 M HCl/KCl buffer. Conditions: for Conc. mg/mL in pH 1.2 HCl/KCl: ca. 37° C. On the procedure:
1000 μL of each sample was drawn from the slurry layer by automated pipette at 15, 30, 60, 120, 240 and 1440 minute timepoints. • These aliquots were spun down through a centrifuge filter, diluted 300 μl:300 μl with the method specified diluent and placed in total recovery vials. The solids were retained for XRPD analysis. • The solubility of the material in the buffer was determined by HPLC analysis (duplicate injections) (Example 1, HPLC Method C) against verified reference solutions of the source material at known concentrations.

Data set [4] is described as follows: 7-day stability assessment of Form 2 inupadenant hydrochloride.
Data set [5] in a line: Dynamic vapor sorption (DVS). The procedure: 10-20 mg of sample was placed into a mesh vapor sorption balance pan and loaded into a DVS Intrinsic or Advantage dynamic vapor sorption balance by Surface Measurement Systems. The sample was subjected to a ramping profile from 40-90% relative humidity (RH) at 10% increments, maintaining the sample at each step until a stable weight had been achieved (dm/dt 0.004%, minimum step length 30 minutes, maximum step length 500 minutes) at 25° C. After completion of the sorption cycle, the sample was dried using the same procedure to 0% RH and then a second sorption cycle back to 40% RH. Two cycles were performed. The weight change during the sorption/desorption cycles were plotted, allowing for the hygroscopic nature of the sample to be determined. XRPD analysis (XRPD Method A) was then carried out on any solid retained.
DVS isotherms were collected using a Surface Measurement Systems Ltd. DVS-1 No Video, equipment #2126. The sample was loaded into balance pan, typically 10-30 mg, and equilibrated at 0% RH. After the material has dried the RH was increased with 10% per step for 1 hour per increment, ending at 95% RH. After completion of the sorption cycle, the sample was dried using the same method. The software used for data collection is DVSWin v3.01 No Video. Data analysis was performed using DVS Standard Analysis Suite v6.3.0 (Standard). […]

Data set [6] can be described thus: 7-day stability assessment of amorphous inupadenant hydrochloride. On the procedure:
A 7-day stability assessment of amorphous inupadenant hydrochloride was carried out as follows: (1) 20 mg amorphous inupadenant was added to 3×2 mL glass vials; (2) the samples were then stored under the following conditions—(i) 40° C./75% RH—open vial, (ii) 80° C.—closed vial, and (iii) ambient light—open vial; (3) Solids were stored for 1 week under the above conditions with XRPD analysis (Example 1, XRPD Method A) and HPLC purity analysis (Example 1, HPLC Method A) being carried out post-storage.

The mark [7] stands for this setting: 7 days, 40° C. + 75% RH, open vial.
Where [8] appears, read: 7 days, ambient light, open vial.

With `C[S@+]([O-])CCOc1cc(N2CCN(CCn3c(=O)sc4c3nc(N)n3nc(-c5ccco5)nc43)CC2)c(F)cc1F.Cl.O` [Form 2 inupadenant hydrochloride], in data set [1], the “solubility in solvent systems” value is recorded as “insoluble”. In addition, the “solid form (XRPD) after slurrying in water” value in data set [2] is “no changes in the solid form”. The “solubility in pH 1.2 0.2 M HCl/KCl buffer” value in data set [3] (37° C., overnight) was “low”. The “Conc. mg/mL in pH 1.2 HCl/KCl” value in data set [3] (15 min) is 0.0010 mg/mL; in data set [3] (30 min), 0.0013 mg/mL; in data set [3] (60 min), 0.0014 mg/mL; in data set [3] (120 min), 0.0023 mg/mL; in data set [3] (240 min), 0.0029 mg/mL; in data set [3] (1440 min) it was 0.0035 mg/mL. Also, in data set [3] (pH 1.2 HCl/KCl buffer), the “XRPD of solids recovered from each timepoint” value is on record as “consistent with Form 2 inupadenant hydrochloride”. For the same compound, the “HPLC (Purity, % area)” value was 99.64 % area in data set [4] (setting [7]); 99.66 % area in data set [4] (7 days, 80° C., closed vial); 99.66 % area in data set [4] (setting [8]); 99.61 % area in data set [4] (input material). Also, the “XRPD Analysis” value in data set [4] (setting [7]) is “Form 2 inupadenant”; in data set [4] (7 days, 80° C., closed vial), “Form 2 inupadenant”; in data set [4] (setting [8]) it was “Form 2 inupadenant”; in data set [4] (input material), “Form 2 inupadenant”. Moreover, in data set [4] (all stability conditions), the “change of solid form (XRPD) after 7-day stability assessment” value is “no changes to the solid form”. For the same compound, the “change of solid purity (HPLC) after 7-day stability assessment” value in data set [4] (all stability conditions) and in data set [6] (all stability conditions) was “no changes to solid purity” throughout. Also, the “DVS total mass increase” value in data set [5] (at 90% RH, 25° C., DVS Method A) was 3.8 wt. %.
Turning to `C[S@+]([O-])CCOc1cc(N2CCN(CCn3c(=O)sc4c3nc(N)n3nc(-c5ccco5)nc43)CC2)c(F)cc1F.Cl` [Form 1 inupadenant hydrochloride], the “DVS total mass uptake” value in data set [5] (at 95% RH, DVS Method B) was determined as 5 wt. %.
Consider `C[S@+]([O-])CCOc1cc(N2CCN(CCn3c(=O)sc4c3nc(N)n3nc(-c5ccco5)nc43)CC2)c(F)cc1F.Cl` [amorphous inupadenant hydrochloride], for which the “HPLC (Purity, % area)” value in data set [6] (setting [7]) is given as 99.64 % area; in data set [6] (7 days, 80° C., closed vial) it was 99.66 % area; in data set [6] (setting [8]), 99.66 % area; in data set [6] (input material) it was 99.61 % area. Also, the “XRPD Analysis” value is given as “Form 2 inupadenant” in data set [6] (setting [7]); “Form 2 inupadenant” in data set [6] (7 days, 80° C., closed vial); “Form 2 inupadenant” in data set [6] (setting [8]); “Predominantly amorphous” in data set [6] (input material). In addition, the “change of solid form (XRPD) after 7-day stability assessment” value in data set [6] (all stability conditions) was “crystallized into Form 2 inupadenant hydrochloride”.

For the origin of these results see US20240343735A1, “Hydrochloride Salt of Inupadenant, Pharmaceutical Compositions and Methods of Use Thereof” (iTeos Belgium SA, priority 2021, published 2024).
